Results: patent US9386938B2, “Methods for collagen imaging” (Collagen Medical, LLC, priority 2005, dated 2016)
Where “and” joins values, the source holds several entries; their conditions need not be identical. Identical values can stand only once. Like-named read-outs stand apart in the source and are kept apart here. Bridge positions count the residues as written; N and C are the ends. Ends that are not written are not given here. Glu‑DTPA‑Gd = N-terminal Glu-DTPA-Gd chelate (gadolinium DTPA complex on glutamic acid)

Tests used:
myocardium = assay: Myocardial MR imaging in mouse; type: in vivo, C57BL/6 mouse; settings: 25 μmol/kg i.v. bolus, 4.7-T
infarcted myocardium = assay: Myocardial infarction MR imaging in mouse, 7 days post MI; type: in vivo, C57BL/6 mouse; settings: 25 μmol/kg i.v. bolus
[1] = Heart uptake in mice, gadolinium by ICP-MS; settings: mouse, mesentery vein injection
Experimental: Male BALB/c mice were anesthetized with pentobarbital (80 mg/kg ip). Following deep anesthesia, a longitudinal incision was made above the base of the abdomen up to just below the sternum. Internal organs were carefully moved out of the body cavity to the left, exposing the mesentery vein. […] The animals were sacrificed at 1, 5, 15, or minutes post-injection. The heart and lungs were immediately removed and rinsed in saline, separated from each other and rinsed with saline again. Both were removed and carefully dried before being prepared for analysis. Organs were digested with nitric acid and gadolinium content determined by ICP-MS.

[2] = In vivo heart uptake of collagen binding agent and non-binding analog; settings: mouse, 10 μmol/kg tail vein, 15 minutes post-injection, N=4
[3] = test system: perfused Langendorff rat heart; assay: Washout kinetics from perfused Langendorff rat heart; settings: perfusion with buffer for 10 minutes
Experimental: (§1) After deep anesthesia with pentobarbital (80 mg/kg ip), the chest cavity of a male Sprague Dawley rat (300 g) was opened, retracted and the heart was removed immediately and placed in an ice-cold normal Krebs-Henseleit (K-H) solution (NaCl, 118 mM; KCl, 4.7 mM; CaCl2, 2.5 mM; MgSO4, 1.2 mM; KH2PO4, 1.2 mM; NaHCO3, 25 mM; glucose, 5.5 mM). A K-H buffer filled 20 Gauge needle was inserted into the apex of the heart penetrating into the bottom of the chamber. This was attached to a pressure transducer used to record and monitor heart function. Perfusion pressure (˜60 mmHg) was monitored using a second transducer. The heart was perfused at a constant flow rate of 10-12 mL/min with 37° C. Krebs-Henseleit buffer saturated with a mixture of 95% O2 and 5% CO2 gas. The heart was paced at 300 beats/min.
A Langendorff rat heart preparation was perfused with K-H buffer at a rate of 10-12 mL/min. A one mL solution containing SEQ ID NO: 144 (300 μM), radiolabeled (I-125) SEQ ID NO: 144 (1-6 μCi), GdDTPA (300 μM), and radiolabeled (Tc-99m) DTPA (5-8 μCi) was infused into the heart at a rate of 1 mL/min. After the infusion was finished, the heart was either removed or perfusion was allowed to continue for an additional 10 minutes and then the heart was removed. The perfusion buffer was not recirculated through the heart. After removal of any connective tissue, the heart was opened, fluid in the chambers drained, and the interior blotted dry with filter paper. The heart was then weighed and the radioactivity in the heart measured with a Packard Cobra 5003 Gamma Scintillation counter. […] An aliquot of the K-H buffer was also weighed and counted. Concentration estimates were decay corrected. Studies were performed at least in duplicate.
A Langendorff rat heart preparation was perfused with K-H buffer at a rate of 10-12 mL/min. […] The heart was then weighed and the radioactivity in the heart measured with a Packard Cobra 5003 Gamma Scintillation counter. […] An aliquot of the K-H buffer was also weighed and counted. […]

rat type I collagen = target: T1, rat type I collagen (Rattus norvegicus, UniProt P02454+P02466); assay: MR phantom imaging at 4.7 T of rat collagen gel samples; settings: samples 4 and 8 (centrifuged)
T1 construct: Rat collagen (acid soluble, type I, rat tail); purchased Upstate USA, Inc 08-115; host or cells: rat tail (tissue extract)
T1 sequence (P02454 152-1207 limits assumed): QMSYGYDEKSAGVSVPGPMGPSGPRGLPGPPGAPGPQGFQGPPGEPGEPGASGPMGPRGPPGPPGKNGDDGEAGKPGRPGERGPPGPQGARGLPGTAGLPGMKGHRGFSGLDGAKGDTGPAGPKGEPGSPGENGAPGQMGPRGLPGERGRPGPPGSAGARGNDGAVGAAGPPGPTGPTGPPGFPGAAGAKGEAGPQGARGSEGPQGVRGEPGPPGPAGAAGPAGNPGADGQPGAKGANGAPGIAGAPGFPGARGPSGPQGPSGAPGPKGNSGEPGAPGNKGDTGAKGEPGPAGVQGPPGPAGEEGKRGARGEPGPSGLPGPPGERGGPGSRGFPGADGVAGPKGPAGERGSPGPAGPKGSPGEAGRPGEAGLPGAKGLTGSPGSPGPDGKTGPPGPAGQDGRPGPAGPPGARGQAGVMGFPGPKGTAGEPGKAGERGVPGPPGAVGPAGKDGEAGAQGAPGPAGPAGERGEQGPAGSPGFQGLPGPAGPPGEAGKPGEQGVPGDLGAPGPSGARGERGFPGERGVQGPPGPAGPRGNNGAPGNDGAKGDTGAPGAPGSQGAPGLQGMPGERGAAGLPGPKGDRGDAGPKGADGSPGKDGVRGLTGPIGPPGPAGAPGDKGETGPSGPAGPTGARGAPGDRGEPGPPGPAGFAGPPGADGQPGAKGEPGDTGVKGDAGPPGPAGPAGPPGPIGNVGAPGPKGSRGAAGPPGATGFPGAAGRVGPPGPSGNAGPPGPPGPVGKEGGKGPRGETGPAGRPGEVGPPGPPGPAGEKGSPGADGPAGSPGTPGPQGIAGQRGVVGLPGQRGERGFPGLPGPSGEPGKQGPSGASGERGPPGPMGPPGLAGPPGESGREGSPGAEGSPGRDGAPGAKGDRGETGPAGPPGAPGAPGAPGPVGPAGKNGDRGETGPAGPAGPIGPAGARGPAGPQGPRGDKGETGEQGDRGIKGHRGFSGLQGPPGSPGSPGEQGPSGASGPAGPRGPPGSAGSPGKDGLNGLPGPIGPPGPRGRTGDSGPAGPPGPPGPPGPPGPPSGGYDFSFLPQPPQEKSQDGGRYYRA
T1 sequence (P02466 86-1125 limits assumed): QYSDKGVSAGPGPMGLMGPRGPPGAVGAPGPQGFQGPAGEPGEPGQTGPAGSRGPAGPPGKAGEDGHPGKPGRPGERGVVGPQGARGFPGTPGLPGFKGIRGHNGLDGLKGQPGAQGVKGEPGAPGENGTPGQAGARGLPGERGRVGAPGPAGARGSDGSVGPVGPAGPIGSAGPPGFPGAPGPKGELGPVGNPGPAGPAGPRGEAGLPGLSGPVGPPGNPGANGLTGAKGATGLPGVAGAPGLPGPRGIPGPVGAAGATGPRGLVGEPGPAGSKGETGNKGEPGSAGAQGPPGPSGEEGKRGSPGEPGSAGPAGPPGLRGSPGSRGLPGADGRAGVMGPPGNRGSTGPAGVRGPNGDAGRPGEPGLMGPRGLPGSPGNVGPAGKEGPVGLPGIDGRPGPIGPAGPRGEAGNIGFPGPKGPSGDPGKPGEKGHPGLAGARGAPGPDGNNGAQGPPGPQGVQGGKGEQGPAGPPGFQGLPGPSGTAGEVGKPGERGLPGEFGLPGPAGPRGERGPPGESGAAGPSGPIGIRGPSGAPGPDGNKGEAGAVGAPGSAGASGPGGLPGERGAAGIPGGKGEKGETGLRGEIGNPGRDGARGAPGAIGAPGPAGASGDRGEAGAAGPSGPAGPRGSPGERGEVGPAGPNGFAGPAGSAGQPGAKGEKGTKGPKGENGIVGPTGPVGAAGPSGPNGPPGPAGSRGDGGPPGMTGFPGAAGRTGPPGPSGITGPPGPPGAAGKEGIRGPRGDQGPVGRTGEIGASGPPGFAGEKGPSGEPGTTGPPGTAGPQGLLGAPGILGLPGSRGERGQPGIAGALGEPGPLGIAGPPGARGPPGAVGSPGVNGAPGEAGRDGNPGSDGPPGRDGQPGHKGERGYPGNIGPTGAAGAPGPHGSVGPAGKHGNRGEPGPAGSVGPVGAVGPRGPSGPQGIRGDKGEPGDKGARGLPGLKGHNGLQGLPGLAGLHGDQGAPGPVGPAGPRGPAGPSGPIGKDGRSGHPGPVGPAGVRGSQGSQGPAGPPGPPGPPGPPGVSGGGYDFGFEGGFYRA
Experimental: Samples: • 1. […] Sample prepared as sample 2, but centrifuged to separate insoluble rat collagen gel • 5. Sample prepared as sample 3, but centrifuged to separate insoluble human collagen gel • 6. 27 μM GdDTPA solution in PBS, pH 7.4 • 7. 27 μM GdDTPA in a solution of 5.0 μM rat type I collagen in 10 mM phosphate buffer, pH 5 incubated at 37° C. overnight to form a gel • 8. Sample prepared as in sample 7, but centrifuged to separate insoluble rat collagen gel • 9. Homogeneous gel of 5 μM rat collagen • 10. Homogeneous gel of 7.5 μM human collagen
Samples for imaging were placed in glass tubes that were in turn placed in tubes containing water. Images were acquired at 4.7 T on a Bruker Biospec Imager using a Multi-Slice Multi-Echo Method with variable Relaxation Delay (MSMEVTR) experiment. The spin echo time and the relaxation delay were set to TE=11.2 ms and TR=500 ms, respectively with a flip angle of 30°. Images were acquired of sample 2, sample 4, sample 7, and sample 8. […] Sample 7 and 8 show uniform signal intensity.

[4] = Biodistribution analysis in rats (heart and blood radioactivity); settings: rat
Experimental: (§2) At either one or five minutes post injection the animals were sacrificed and the blood and heart collected. The heart was rinsed in a saline and blotted dry before analysis. […] An aliquot of the injection solution was also weighed and counted. Concentration estimates were decay corrected. Studies were performed at least in duplicate.

[5] = test system: perfused Langendorff rat heart; assay: Equilibrium binding to perfused Langendorff rat heart; settings: 10 minutes
Experimental: as §1
Two peptide test articles, a high collagen binding peptide (SEQ ID NO: 144) and a low collagen binding peptide (SEQ ID NO: 173), are compared to GdDTPA. The appropriate test article was added to the K-H buffer solution to a total concentration of either 3 or 30 μM. Also added to the K-H buffer was a radiotracer analog of each peptide or GdDTPA. For the peptides, the radiotracer was an aliquot of the appropriate 1-125 labeled peptide derivative (see Example 5 for protocol). For GdDTPA, the tracer added was Tc-99m labeled DTPA. The amount of radioactivity added to the buffer solution was 1-5 μCi.
The heart was perfused for a period of 10 minutes and the perfusion solution was recycled through the heart. The total volume of K-H buffer used was 50-60 mL. After 10 min, the heart was removed from the apparatus and any connective tissue was removed. The heart was opened, fluid in the chambers drained, and the interior blotted dry with filter paper. The heart was then weighed and the radioactivity in the heart measured with a Packard Cobra 5003 Gamma Scintillation counter. An aliquot of the K-H buffer was also weighed and counted. Studies were performed at least in duplicate.
The dual peptide gadolinium tetramer (Compound ID 803) was compared to GdDTPA. Compound ID 803 and GdDTPA were added to the K-H buffer solution to a total concentration of 3 μM. Also added to the K-H buffer was a radiotracer analog of Compound ID 803 or GdDTPA. For Compound ID 803, the radiotracer was an aliquot of the In-111 labeled compound. For GdDTPA, the tracer added was Tc-99m labeled DTPA. The amount of radioactivity added to the buffer solution was 1-5 μCi.

[6] = rat, in vivo
Experimental: as §2

CC(C)C[C@H](NC(=O)[C@@H]1CSSC[C@H](NC(=O)[C@H](Cc2c[nH]cn2)NC(=O)[C@H](Cc2c[nH]c3ccccc23)NC(=O)[C@H](CCCCNC(=O)CNC(=S)Nc2ccc(C[C@@H](CN(CCN(CC(=O)O)CC(=O)O)CC(=O)O)N(CC(=O)O)CC(=O)O)cc2)NC(=O)CNC(=S)Nc2ccc(C[C@@H](CN(CCN(CC(=O)O)CC(=O)O)CC(=O)O)N(CC(=O)O)CC(=O)O)cc2)C(=O)N[C@@H]([C@@H](C)O)C(=O)N[C@@H]([C@@H](C)O)C(=O)N[C@@H](CCCCNC(=S)Nc2ccc(C[C@@H](CN(CCN(CC(=O)O)CC(=O)O)CC(=O)O)N(CC(=O)O)CC(=O)O)cc2)C(=O)N[C@@H](Cc2ccccc2)C(=O)N2CCC[C@H]2C(=O)N[C@@H](Cc2c[nH]cn2)C(=O)N[C@@H](Cc2c[nH]cn2)C(=O)N[C@@H](Cc2ccc(O)cc2)C(=O)N1)C(=O)N[C@@H](Cc1ccc(O)cc1)C(=O)N[C@@H](Cc1ccc(-c2ccccc2)cc1)C(N)=O [Compound ID 800]
persistence of positive enhancement of the myocardium (myocardium): at least 1 hour | MR enhancement of infarcted regions (infarcted myocardium): hyperenhancement of infarcted zones | persistence of enhancement (infarcted myocardium): at least 1 hour | retention of gadolinium in the heart [1]: ≥ 30 min

CC(C)C[C@H](NC(=O)[C@@H]1CSSC[C@@H](NC(=O)[C@H](Cc2c[nH]cn2)NC(=O)[C@H](Cc2c[nH]c3ccccc23)NC(=O)[C@H](CCCCNC(=O)CNC(=S)Nc2ccc(C[C@@H](CN(CCN(CC(=O)O)CC(=O)O)CC(=O)O)N(CC(=O)O)CC(=O)O)cc2)NC(=O)CNC(=S)Nc2ccc(C[C@@H](CN(CCN(CC(=O)O)CC(=O)O)CC(=O)O)N(CC(=O)O)CC(=O)O)cc2)C(=O)N[C@@H]([C@@H](C)O)C(=O)N[C@@H]([C@@H](C)O)C(=O)N[C@@H](CCCCNC(=S)Nc2ccc(C[C@@H](CN(CCN(CC(=O)O)CC(=O)O)CC(=O)O)N(CC(=O)O)CC(=O)O)cc2)C(=O)N[C@@H](Cc2ccccc2)C(=O)N2CCC[C@H]2C(=O)N[C@@H](Cc2c[nH]cn2)C(=O)N[C@@H](Cc2c[nH]cn2)C(=O)N[C@@H](Cc2ccc(O)cc2)C(=O)N1)C(=O)N[C@@H](Cc1ccc(O)cc1)C(=O)N[C@@H](Cc1ccc(-c2ccccc2)cc1)C(N)=O [Compound ID 1019]
Gadolinium concentration in the blood [2]: 13.3±0.3 nmol Gd/g tissue | Gadolinium concentration in the heart [2]: 14.7±1.0 nmol Gd/g tissue

O=C([O-])CN(CCN(CC(=O)[O-])CC(=O)O)CCN(CC(=O)[O-])CC(=O)O.[Gd+3] [GdDTPA, gadolinium diethylenetriaminepentaacetate, reference compound]
amount remaining in heart at 10 minutes after infusion relative to 0 minutes post infusion [3]: 0.5% and 2.2% | MR signal of centrifuged rat collagen gel pellet versus supernatant (rat type I collagen): no increased concentration of GdDTPA in the gel relative to the supernatant | Heart:Blood ([4]; 1 min post injection): 0.26 | Heart:Blood ([4]; 5 min post injection): 0.26

Glu-DTPA-Gd-G.Q.W.H.C.T.T.R.F.P.H.H.Y.C.L.Y.G-PEG-H ({Glu‑DTPA‑Gd}-GQWHCTTRFPHHYCLYG; disulfide 5-14 (inferred); not fully specified (C-terminus)) [SEQ ID NO. 186]
MR signal of centrifuged rat collagen gel pellet versus supernatant (rat type I collagen): the pellet for sample 4 was much brighter than the supernatant

Q W T C S G D A Y T W H C N Y E (GQWTCSGDAYTWHCNYE; disulfide 5-14 (inferred); not fully specified (C-terminus)) [SEQ ID NO. 144]
amount remaining in heart at 10 minutes after infusion relative to 0 minutes post infusion [3]: 68% | heart uptake relative to GdDTPA [5]: about 10 times | Heart:Blood [6]: 0.38
